One experiment deals with EGFR del19/T790M/C797S (Homo sapiens, UniProt P00533, C797S/DEL746-750/T790M). The experiment can be described thus: Biochemical EGFR kinase assay (Lance Ultra TR-FRET), triple mutant del19/T790M/C797S. The method in brief: (§1)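 Step 1: compound in kinase buffer, 0.003–10 μM. Step 2: kinase reaction 1 h at room temperature. Step 4: TR-FRET read at 615/665 nm; IC50 calculated.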

In the next experiment the target is EGFR L858R/T790M/C797S (Homo sapiens, UniProt P00533, C797S/L858R/T790M). The experiment can be described thus: Biochemical EGFR kinase assay (Lance Ultra TR-FRET), triple mutant L858R/T790M/C797S. The essentials: as §1
In general terms: In TR-FRET formats the signal depends on donor and acceptor labels being close together.

In a further experiment the target is EGFR del19/C797S (Homo sapiens, UniProt P00533, C797S/DEL746-750). The experiment in a line: Biochemical EGFR kinase assay (Lance Ultra TR-FRET), double mutant del19/C797S. The method in brief:
as §1

The next experiment addresses EGFR L858R/C797S (Homo sapiens, UniProt P00533, C797S/L858R). The experiment in a line: Biochemical EGFR kinase assay (Lance Ultra TR-FRET), double mutant L858R/C797S. The essentials: as §1
Another experiment deals with EGFR wildtype (WT) (Homo sapiens, UniProt P00533). The experiment can be described thus: Biochemical EGFR kinase assay (Lance Ultra TR-FRET), wildtype. The method in brief: as §1
EGFR wildtype (WT), sequence (P00533 25-1210): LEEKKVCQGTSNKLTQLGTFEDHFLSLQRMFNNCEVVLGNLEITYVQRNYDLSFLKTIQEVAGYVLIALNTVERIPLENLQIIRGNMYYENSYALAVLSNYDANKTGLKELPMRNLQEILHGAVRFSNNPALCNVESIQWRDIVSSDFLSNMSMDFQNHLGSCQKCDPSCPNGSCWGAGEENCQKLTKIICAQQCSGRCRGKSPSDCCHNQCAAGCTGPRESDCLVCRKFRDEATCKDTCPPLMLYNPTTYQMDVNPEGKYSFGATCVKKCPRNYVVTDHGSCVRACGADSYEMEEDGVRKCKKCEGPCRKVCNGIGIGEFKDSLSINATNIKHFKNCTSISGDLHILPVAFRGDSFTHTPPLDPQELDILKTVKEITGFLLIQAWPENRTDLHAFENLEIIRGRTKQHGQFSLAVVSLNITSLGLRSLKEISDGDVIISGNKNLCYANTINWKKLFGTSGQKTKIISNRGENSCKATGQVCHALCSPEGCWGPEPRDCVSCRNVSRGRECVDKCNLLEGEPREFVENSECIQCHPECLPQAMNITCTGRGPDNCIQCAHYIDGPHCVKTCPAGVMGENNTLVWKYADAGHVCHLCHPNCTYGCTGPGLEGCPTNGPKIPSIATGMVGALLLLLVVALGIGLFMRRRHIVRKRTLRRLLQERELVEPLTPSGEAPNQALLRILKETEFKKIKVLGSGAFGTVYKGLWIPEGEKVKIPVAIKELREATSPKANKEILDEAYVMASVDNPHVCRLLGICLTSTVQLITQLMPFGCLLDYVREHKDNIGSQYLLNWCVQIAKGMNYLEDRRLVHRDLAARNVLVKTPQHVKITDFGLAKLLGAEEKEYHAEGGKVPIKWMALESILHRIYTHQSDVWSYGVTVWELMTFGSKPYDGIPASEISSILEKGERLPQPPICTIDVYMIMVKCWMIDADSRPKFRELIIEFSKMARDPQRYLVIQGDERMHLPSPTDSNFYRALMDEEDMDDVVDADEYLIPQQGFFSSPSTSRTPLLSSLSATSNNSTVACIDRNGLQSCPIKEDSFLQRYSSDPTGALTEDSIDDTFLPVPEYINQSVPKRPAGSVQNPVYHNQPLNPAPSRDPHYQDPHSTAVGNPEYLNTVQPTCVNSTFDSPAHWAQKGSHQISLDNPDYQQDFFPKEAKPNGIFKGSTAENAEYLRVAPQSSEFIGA
Setting [1] is: Km ATP, read-out: IC50 del19/T790M/C797S (nM) Km ATP.
Setting [2] is: Km ATP, read-out: IC50 L858R/T790M/C797S (nM) Km ATP.
Setting [3] is: Km ATP, read-out: IC50 del19/C797S (nM) Km ATP.
The mark [4] stands for this setting: Km ATP, read-out: IC50 L858R/C797S (nM) Km ATP.
[5] abbreviates: Km ATP, read-out: IC50 WT (nM) Km ATP.
Where [6] appears, read: IC50 del19/T790M/C797S (nM) 100 μM ATP, 100 μM ATP.
The mark [7] stands for this setting: IC50 L858R/T790M/C797S (nM) 100 μM ATP, 100 μM ATP.
Setting [8] is: IC50 del19/C797S (nM) 100 μM ATP, 100 μM ATP.
Setting [9] is: IC50 L858R/C797S (nM) 100 μM ATP, 100 μM ATP.
[10] abbreviates: IC50 WT (nM) 100 μM ATP, 100 μM ATP.
Setting [11] is: Km ATP, read-out: IC50 del19/T790M/C797S, Km ATP.
[12] abbreviates: Km ATP, read-out: IC50 L858R/T790M/C797S, Km ATP.
Where [13] appears, read: Km ATP, read-out: IC50 del19/C797S, Km ATP.
Where [14] appears, read: Km ATP, read-out: IC50 L858R/C797S, Km ATP.
The mark [15] stands for this setting: Km ATP, read-out: IC50 WT, Km ATP.

Each structure is given as a SMILES string. Read-outs that look alike come from different tables or passages of the source.

EGFR L858R/C797S, sequence (P00533 25-1210 C797S/L858R): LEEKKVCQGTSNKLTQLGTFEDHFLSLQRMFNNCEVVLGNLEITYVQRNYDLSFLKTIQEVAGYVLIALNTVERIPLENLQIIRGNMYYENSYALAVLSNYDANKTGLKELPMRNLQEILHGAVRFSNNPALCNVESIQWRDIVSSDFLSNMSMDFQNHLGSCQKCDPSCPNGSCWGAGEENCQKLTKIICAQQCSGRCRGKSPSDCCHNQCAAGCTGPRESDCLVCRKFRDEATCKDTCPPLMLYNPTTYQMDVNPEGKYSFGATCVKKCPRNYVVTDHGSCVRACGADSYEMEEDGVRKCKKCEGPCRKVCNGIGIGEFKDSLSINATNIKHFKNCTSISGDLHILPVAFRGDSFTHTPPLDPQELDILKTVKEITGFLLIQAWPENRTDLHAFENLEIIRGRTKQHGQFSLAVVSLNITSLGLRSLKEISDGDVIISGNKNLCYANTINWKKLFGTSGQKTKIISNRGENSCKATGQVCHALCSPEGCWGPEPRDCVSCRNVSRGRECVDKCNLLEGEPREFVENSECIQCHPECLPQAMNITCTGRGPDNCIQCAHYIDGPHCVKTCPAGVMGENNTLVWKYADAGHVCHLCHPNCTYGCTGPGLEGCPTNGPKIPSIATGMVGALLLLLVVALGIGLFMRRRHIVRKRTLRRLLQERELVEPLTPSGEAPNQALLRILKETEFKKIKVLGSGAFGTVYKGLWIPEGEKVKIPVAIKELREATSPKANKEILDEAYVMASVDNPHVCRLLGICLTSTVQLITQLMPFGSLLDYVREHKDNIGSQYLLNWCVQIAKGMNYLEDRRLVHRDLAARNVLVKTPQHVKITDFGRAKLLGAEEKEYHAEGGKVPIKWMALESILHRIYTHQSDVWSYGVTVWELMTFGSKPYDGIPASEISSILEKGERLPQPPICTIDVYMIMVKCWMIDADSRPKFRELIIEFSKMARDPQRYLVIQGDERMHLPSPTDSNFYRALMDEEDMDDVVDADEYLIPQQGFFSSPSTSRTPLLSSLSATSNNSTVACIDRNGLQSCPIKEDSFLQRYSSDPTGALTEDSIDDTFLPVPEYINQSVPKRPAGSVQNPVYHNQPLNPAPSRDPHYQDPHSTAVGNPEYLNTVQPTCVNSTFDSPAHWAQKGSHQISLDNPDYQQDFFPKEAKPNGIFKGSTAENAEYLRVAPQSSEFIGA
EGFR del19/T790M/C797S, sequence (P00533 with tags, fused parts or gaps DEL746-750/T790M/C797S): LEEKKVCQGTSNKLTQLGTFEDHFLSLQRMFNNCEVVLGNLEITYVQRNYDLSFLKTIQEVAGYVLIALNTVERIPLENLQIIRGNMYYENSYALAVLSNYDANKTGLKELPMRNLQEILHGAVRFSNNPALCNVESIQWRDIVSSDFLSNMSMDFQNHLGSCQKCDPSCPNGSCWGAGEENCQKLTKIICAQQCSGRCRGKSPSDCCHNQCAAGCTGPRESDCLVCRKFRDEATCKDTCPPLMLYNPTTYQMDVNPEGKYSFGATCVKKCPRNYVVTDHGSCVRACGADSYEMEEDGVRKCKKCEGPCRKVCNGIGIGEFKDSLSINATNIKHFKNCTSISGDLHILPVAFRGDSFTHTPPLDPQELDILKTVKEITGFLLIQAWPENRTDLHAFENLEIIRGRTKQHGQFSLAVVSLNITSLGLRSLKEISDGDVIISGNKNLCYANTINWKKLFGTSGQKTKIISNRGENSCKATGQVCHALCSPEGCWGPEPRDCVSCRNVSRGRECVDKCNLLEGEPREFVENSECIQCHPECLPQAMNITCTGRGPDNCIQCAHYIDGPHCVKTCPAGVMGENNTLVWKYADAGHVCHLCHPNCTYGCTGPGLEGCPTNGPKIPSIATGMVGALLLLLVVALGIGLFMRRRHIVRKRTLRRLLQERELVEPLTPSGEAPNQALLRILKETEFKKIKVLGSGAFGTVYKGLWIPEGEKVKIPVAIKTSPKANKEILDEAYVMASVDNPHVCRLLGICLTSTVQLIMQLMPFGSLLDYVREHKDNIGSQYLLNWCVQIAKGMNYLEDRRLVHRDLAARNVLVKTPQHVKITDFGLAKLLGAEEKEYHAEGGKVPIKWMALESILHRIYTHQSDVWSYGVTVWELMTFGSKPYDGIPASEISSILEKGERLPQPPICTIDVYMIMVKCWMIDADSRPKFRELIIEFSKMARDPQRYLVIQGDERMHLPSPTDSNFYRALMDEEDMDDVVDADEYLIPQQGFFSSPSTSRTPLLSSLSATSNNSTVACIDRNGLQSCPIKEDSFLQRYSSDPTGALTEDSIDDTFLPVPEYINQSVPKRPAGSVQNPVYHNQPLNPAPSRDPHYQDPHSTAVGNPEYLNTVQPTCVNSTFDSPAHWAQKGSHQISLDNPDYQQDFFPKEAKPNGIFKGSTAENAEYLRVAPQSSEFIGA
EGFR del19/C797S, sequence (P00533 with tags, fused parts or gaps DEL746-750/C797S): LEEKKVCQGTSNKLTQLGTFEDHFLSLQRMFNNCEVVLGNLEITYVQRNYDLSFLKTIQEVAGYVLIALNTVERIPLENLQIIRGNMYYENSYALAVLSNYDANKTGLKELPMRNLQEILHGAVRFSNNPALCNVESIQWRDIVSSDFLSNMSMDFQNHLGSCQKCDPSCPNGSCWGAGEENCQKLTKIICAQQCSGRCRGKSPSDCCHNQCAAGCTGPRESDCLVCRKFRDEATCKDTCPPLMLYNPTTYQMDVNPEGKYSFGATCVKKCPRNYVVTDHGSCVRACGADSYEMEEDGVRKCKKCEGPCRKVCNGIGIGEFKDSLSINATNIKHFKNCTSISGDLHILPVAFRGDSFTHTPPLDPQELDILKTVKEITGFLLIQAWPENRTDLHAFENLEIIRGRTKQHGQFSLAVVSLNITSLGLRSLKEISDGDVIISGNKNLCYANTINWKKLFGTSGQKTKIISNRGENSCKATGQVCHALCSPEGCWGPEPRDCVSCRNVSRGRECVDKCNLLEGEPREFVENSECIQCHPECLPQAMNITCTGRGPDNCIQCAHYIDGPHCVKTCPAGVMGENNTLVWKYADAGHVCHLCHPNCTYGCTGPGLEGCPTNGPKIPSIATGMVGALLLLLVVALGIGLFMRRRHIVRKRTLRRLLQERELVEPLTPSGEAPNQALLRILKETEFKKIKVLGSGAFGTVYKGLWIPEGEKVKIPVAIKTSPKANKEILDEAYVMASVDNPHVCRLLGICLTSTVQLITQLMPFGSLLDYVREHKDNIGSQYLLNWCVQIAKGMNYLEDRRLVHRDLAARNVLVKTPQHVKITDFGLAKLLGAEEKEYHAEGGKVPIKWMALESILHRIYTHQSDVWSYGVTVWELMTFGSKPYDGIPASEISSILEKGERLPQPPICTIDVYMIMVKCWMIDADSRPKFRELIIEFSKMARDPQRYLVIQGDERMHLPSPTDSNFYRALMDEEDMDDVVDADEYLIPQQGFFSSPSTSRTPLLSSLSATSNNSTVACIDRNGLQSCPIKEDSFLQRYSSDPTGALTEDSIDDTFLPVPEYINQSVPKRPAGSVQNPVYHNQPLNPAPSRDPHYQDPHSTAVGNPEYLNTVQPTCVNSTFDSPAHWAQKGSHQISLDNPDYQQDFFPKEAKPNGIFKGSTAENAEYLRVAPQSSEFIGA

`O=S(=O)(C1CC1)n1cc(-c2nccc(Nc3cc(N[C@H]4CC[C@@H](F)CC4)c(-c4ccn(C(F)(F)F)n4)cn3)n2)cn1` [Example 286, N^2-(2-(1-(Cyclopropylsulfonyl)-1H-pyrazol-4-yl)pyrimidin-4-yl)-N^4-((1s,4s)-4-fluorocyclohexyl)-5-(1-(trifluoromethyl)-1H-pyrazol-3-yl)pyridine-2,4-diamine]: the IC50 is 20.2 nM on EGFR del19/T790M/C797S (setting [1]); 4.8 nM at EGFR L858R/T790M/C797S (setting [2]); 90.9 nM on EGFR del19/C797S (setting [3]); 188 nM on EGFR L858R/C797S (setting [4]); 1010 nM on EGFR wildtype (WT) (setting [5]).

For the compound `Cn1nc(-c2cnc(Nc3ccnc(-c4cnn(S(=O)(=O)C5CC5)c4)n3)cc2NN2CCC(O)CC2)cc1C(F)(F)F` [Example 160, 1-((2-((2-(1-(Cyclopropylsulfonyl)-1H-pyrazol-4-yl)pyrimidin-4-yl)amino)-5-(1-methyl-5-(trifluoromethyl)-1H-pyrazol-3-yl)pyridin-4-yl)amino)piperidin-4-ol], the IC50 at EGFR del19/T790M/C797S (setting [1]) came out at 1 nM; on EGFR L858R/T790M/C797S (setting [2]) it was 0.5 nM; at EGFR del19/C797S (setting [3]), 2 nM; on EGFR L858R/C797S (setting [4]), 1 nM; at EGFR wildtype (WT) (setting [5]) it was 8.3 nM.

With `CC(=O)N1CC=C(c2nccc(Nc3cc(N[C@H]4CC[C@@](C)(O)CC4)c(-c4ccn(C(F)F)n4)cn3)n2)CC1` [Example 159, 1-(4-(4-((5-(1-(Difluoromethyl)-1H-pyrazol-3-yl)-4-(((1s,4s)-4-hydroxy-4-methylcyclohexyl)amino)pyridin-2-yl)amino)pyrimidin-2-yl)-3,6-dihydropyridin-1(2H)-yl)ethan-1-one], the IC50 turned out to be 19.2 nM on EGFR del19/T790M/C797S (setting [1]); 11.7 nM on EGFR L858R/T790M/C797S (setting [2]); 2050 nM on EGFR del19/C797S (setting [3]); 291 nM on EGFR L858R/C797S (setting [4]); 327 nM at EGFR wildtype (WT) (setting [5]).

In the case of `COCC#Cc1nccc(Nc2cc(NC3CCC(C)(O)CC3)c(-c3ccn(C(F)F)n3)cn2)n1` (centres unmarked) [Example 104, (1s,4s)-4-((5-(1-(Difluoromethyl)-1H-pyrazol-3-yl)-2-((2-(3-methoxyprop-1-yn-1-yl)pyrimidin-4-yl)amino)pyridin-4-yl)amino)-1-methylcyclohexan-1-ol], the IC50 was determined as 4.3 nM on EGFR del19/T790M/C797S (setting [1]); 5.9 nM on EGFR L858R/T790M/C797S (setting [2]); 949 nM on EGFR del19/C797S (setting [3]); 15.6 nM on EGFR L858R/C797S (setting [4]); 984 nM on EGFR wildtype (WT) (setting [5]).

As for `O=S(=O)(C1CC1)n1cc(-c2nccc(Nc3cc(N[C@H]4CC[C@@H](CO)CC4)c(-c4ccn(CC(F)F)n4)cn3)n2)cn1` [Example 244, ((1s,4s)-4-((2-((2-(1-(Cyclopropylsulfonyl)-1H-pyrazol-4-yl)pyrimidin-4-yl)amino)-5-(1-(2,2-difluoroethyl)-1H-pyrazol-3-yl)pyridin-4-yl)amino)cyclohexyl)methanol], the IC50 against EGFR del19/T790M/C797S (setting [6]) came to 0.2 nM; at EGFR del19/T790M/C797S (setting [1]), 0.3 nM; against EGFR L858R/T790M/C797S (setting [7]), 0.4 nM; on EGFR L858R/T790M/C797S (setting [2]), 0.1 nM; against EGFR del19/C797S (setting [8]) it was 0.5 nM; at EGFR del19/C797S (setting [3]), 0.6 nM. The IC50 against EGFR L858R/C797S (setting [9]) turned out to be 1.9 nM; on EGFR L858R/C797S (setting [4]), 0.5 nM; against EGFR wildtype (WT) (setting [10]), 975 nM; on EGFR wildtype (WT) (setting [5]), 2.3 nM.

Regarding `C[C@]1(O)CC[C@@H](Nc2nc(Nc3ccnc(-c4cnn(S(=O)(=O)C5CC5)c4)c3)ncc2-c2ccn(C(F)F)n2)CC1` [Example 355, (1s,4s)-4-((2-((2-(1-(Cyclopropylsulfonyl)-1H-pyrazol-4-yl)pyridin-4-yl)amino)-5-(1-(difluoromethyl)-1H-pyrazol-3-yl)pyrimidin-4-yl)amino)-1-methylcyclohexan-1-ol], the IC50 on EGFR del19/T790M/C797S (setting [11]) was determined as 0.7 nM; on EGFR L858R/T790M/C797S (setting [12]) it was 0.3 nM; on EGFR del19/C797S (setting [13]) it was 11 nM; on EGFR L858R/C797S (setting [14]), 13.3 nM; on EGFR wildtype (WT) (setting [15]), 64.4 nM.

`C[C@]1(O)CC[C@@H](Nc2cc(Nc3ccnc(-c4cnn(C(F)F)c4)n3)ncc2-c2ccn(C(F)F)n2)CC1` [Example 149, (1s,4s)-4-((5-(1-(Difluoromethyl)-1H-pyrazol-3-yl)-2-((2-(1-(difluoromethyl)-1H-pyrazol-4-yl)pyrimidin-4-yl)amino)pyridin-4-yl)amino)-1-methylcyclohexan-1-ol]: the IC50 on EGFR del19/T790M/C797S (setting [1]) was 2.7 nM; on EGFR L858R/T790M/C797S (setting [2]) it was 2.7 nM; on EGFR del19/C797S (setting [3]), 144 nM; on EGFR L858R/C797S (setting [4]), 47.2 nM; on EGFR wildtype (WT) (setting [5]), 1730 nM.

For the compound `O=S(=O)(C1CC1)n1cc(-c2nccc(Nc3cc(N[C@H]4CC[C@@H](F)CC4)c(-c4ccn(CC(F)(F)F)n4)cn3)n2)cn1` [Example 305, N^2-(2-(1-(Cyclopropylsulfonyl)-1H-pyrazol-4-yl)pyrimidin-4-yl)-N^4-((1s,4s)-4-fluorocyclohexyl)-5-(1-(2,2,2-trifluoroethyl)-1H-pyrazol-3-yl)pyridine-2,4-diamine], the IC50 on EGFR del19/T790M/C797S (setting [1]) stood at 8 nM; at EGFR L858R/T790M/C797S (setting [2]), 5.3 nM; at EGFR del19/C797S (setting [3]), 67.7 nM; on EGFR L858R/C797S (setting [4]), 12 nM; on EGFR wildtype (WT) (setting [5]), 853 nM.

Consider `Cn1nc(-c2cnc(Nc3ccnc(-c4cnn(S(=O)(=O)C5CC5)c4)n3)cc2N[C@H]2CC[C@@H](NCCF)CC2)cc1C(F)(F)F` [Example 255, N^2-(2-(1-(Cyclopropylsulfonyl)-1H-pyrazol-4-yl)pyrimidin-4-yl)-N^4-((1s,4s)-4-((2-fluoroethyl)amino)cyclohexyl)-5-(1-methyl-5-(trifluoromethyl)-1H-pyrazol-3-yl)pyridine-2,4-diamine], for which the IC50 is 0.8 nM on EGFR del19/T790M/C797S (setting [6]); 0.6 nM on EGFR del19/T790M/C797S (setting [1]); 1.2 nM on EGFR L858R/T790M/C797S (setting [7]); 0.2 nM on EGFR L858R/T790M/C797S (setting [2]); 2.4 nM at EGFR del19/C797S (setting [8]); 1.1 nM at EGFR del19/C797S (setting [3]). Moreover, the IC50 is 25.4 nM on EGFR L858R/C797S (setting [9]), 5.3 nM on EGFR L858R/C797S (setting [4]), greater than 10000 nM on EGFR wildtype (WT) (setting [10]) and 8.2 nM on EGFR wildtype (WT) (setting [5]).

For `CCC(C)Nc1cc(Nc2ccnc(-c3cnn(S(=O)(=O)C4CC4)c3)n2)ncc1-c1ccn(CC(F)F)n1` (centres unmarked) [Example 250, N^4-(sec-Butyl)-N^2-(2-(1-(cyclopropylsulfonyl)-1H-pyrazol-4-yl)pyrimidin-4-yl)-5-(1-(2,2-difluoroethyl)-1H-pyrazol-3-yl)pyridine-2,4-diamine], the IC50 came to 0.9 nM on EGFR del19/T790M/C797S (setting [1]); 0.9 nM at EGFR L858R/T790M/C797S (setting [2]); 63.8 nM at EGFR del19/C797S (setting [3]); 4.4 nM at EGFR L858R/C797S (setting [4]); 56.1 nM at EGFR wildtype (WT) (setting [5]).

For the compound `CN(C)C[C@H]1C[C@@H](CNc2cc(Nc3ccnc(-c4cnn(S(=O)(=O)C5CC5)c4)n3)ncc2-c2ccn(C(F)F)n2)C1` [Example 203, N^2-(2-(1-(Cyclopropylsulfonyl)-1H-pyrazol-4-yl)pyrimidin-4-yl)-5-(1-(difluoromethyl)-1H-pyrazol-3-yl)-N^4-(((1s,3s)-3-((dimethylamino)methyl)cyclobutyl)methyl)pyridine-2,4-diamine], the IC50 against EGFR del19/T790M/C797S (setting [6]) came to 0.1 nM; against EGFR L858R/T790M/C797S (setting [7]), 0.2 nM; on EGFR del19/C797S (setting [8]), 1.1 nM; on EGFR L858R/C797S (setting [9]), 8.3 nM; against EGFR wildtype (WT) (setting [10]) it was 2970 nM.

Take `Cn1nc(-c2nnc(Nc3ccnc(-c4cnn(S(=O)(=O)C5CC5)c4)n3)cc2N[C@H]2CC[C@@](C)(O)CC2)cc1C(F)(F)F` [Example 373, (1s,4s)-4-((6-((2-(1-(Cyclopropylsulfonyl)-1H-pyrazol-4-yl)pyrimidin-4-yl)amino)-3-(1-methyl-5-(trifluoromethyl)-1H-pyrazol-3-yl)pyridazin-4-yl)amino)-1-methylcyclohexan-1-ol]: the IC50 at EGFR del19/T790M/C797S (setting [11]) came to 0.5 nM; on EGFR L858R/T790M/C797S (setting [12]), 3 nM; on EGFR del19/C797S (setting [13]), 663 nM; on EGFR L858R/C797S (setting [14]), 226 nM; on EGFR wildtype (WT) (setting [15]) it was 714 nM.

Take `CN(C)CC[C@H]1CC[C@@H](Nc2cc(Nc3ccnc(-c4cnn(S(=O)(=O)C5CC5)c4)n3)ncc2-c2ccn(C(F)F)n2)CC1` [Example 211, N^2-(2-(1-(Cyclopropylsulfonyl)-1H-pyrazol-4-yl)pyrimidin-4-yl)-5-(1-(difluoromethyl)-1H-pyrazol-3-yl)-N^4-((1s,4s)-4-(2-(dimethylamino)ethyl)cyclohexyl)pyridine-2,4-diamine]: the IC50 stood at 0.6 nM at EGFR del19/T790M/C797S (setting [1]); 0.3 nM on EGFR L858R/T790M/C797S (setting [2]); 0.4 nM at EGFR del19/C797S (setting [3]); 0.1 nM at EGFR L858R/C797S (setting [4]); 0.3 nM at EGFR wildtype (WT) (setting [5]).

With `Cc1nn(CC(F)F)c(C)c1-c1nccc(Nc2cc(N[C@H]3CC[C@@](C)(O)CC3)c(-c3ccn(C(F)F)n3)cn2)n1` [Example 321, (1s,4s)-4-((2-((2-(1-(2,2-Difluoroethyl)-3,5-dimethyl-1H-pyrazol-4-yl)pyrimidin-4-yl)amino)-5-(1-(difluoromethyl)-1H-pyrazol-3-yl)pyridin-4-yl)amino)-1-methylcyclohexan-1-ol], the IC50 was found to be 2.8 nM at EGFR del19/T790M/C797S (setting [1]); 2.3 nM at EGFR L858R/T790M/C797S (setting [2]); 20.2 nM on EGFR del19/C797S (setting [3]); 10.4 nM at EGFR L858R/C797S (setting [4]); 74.8 nM on EGFR wildtype (WT) (setting [5]).
